Experimental data as given in patent US10400064B2, “Glycerol-based polycarbonates” (TRUSTEES OF BOSTON UNIVERSITY, priority 2014, dated 2019).

System: A549 cells
Assay: In vitro toxicity analysis, viability after 3 days of treatment
Type: cell-based
Settings: incubated with treatment for 3 days
Procedure: Scale bar=200 nm. […] Cells were incubated with treatment for 5 days, and viability was assessed. […] Right lower panel: In vitro toxicity analysis of PGC-Cisplatin and cisplatin alone in A549 cells. Cells were incubated with treatment for 3 days, and viability was assessed.
PGC-Pax and PGC-Cisplatin nanoparticles are synthesized using a miniemulsion technique. Briefly, the polymer is added to dichloromethane, and the organic phase is dispersed via sonication into an aqueous phase, containing sodium dodecyl sulfate as a surfactant.

Structure (SMILES): N.N.[Cl][Pt][Cl] [cisplatin]
- IC50: 0.9273 µg/mL
